Measured values: patent publication US20230235022A1, “NEUTROPHIL ELASTASE BINDING PEPTIDES AND COMPOSITIONS THEREOF” (CASE WESTERN RESERVE UNIVERSITY, priority 2020, published 2023)

Columns and labels:
[1] = Lethality after intravenous administration of HCQ in mouse; format: in vivo
neutrophils = experiment: Neutrophil viability with free or encapsulated HCQ; format: cell-based
[2] = biological target: RCL-derived NE binding peptide (NEBP)

Molecule | lethality [1] | concentration at which neutrophil viability is affected (neutrophils) | HPLC-based analysis of cleavage by NE [2]
CCN(CCO)CCCC(C)Nc1ccnc2cc(Cl)ccc12 (stereo not shown) [free HCQ, hydroxychloroquine] | high lethality | ≥ 10^3 ng/ml | 
human neutrophil elastase (h-NE) (protein) IVGGRRARPHAWPFMVSLQLRGGHFCGATLIAPNFVMSAAHCVANVNVRAVRVVLGAHNLSRREPTRQVFAVQRIFENGYDPVNLLNDIVILQLNGSATINANVQVAQLPAQGRRLGNGVQCLAMGWGLLGRNRGIASVLQELNVTVVTSLCRRSNVCTLVRGRQAGVCFGDSGSPLVCNGLIHGIASFVRGGCASGLYPDAFAPVAQFVNWIDSIIQ |  |  | such peptides are not cleaved by NE
mouse neutrophil elastase (m-NE) (protein) IVGGRPARPHAWPFMASLQRRGGHFCGATLIARNFVMSAAHCVNGLNFRSVQVVLGAHDLRRQERTRQTFSVQRIFENGFDPSQLLNDIVIIQLNGSATINANVQVAQLPAQGQGVGDRTPCLAMGWGRLGTNRPSPSVLQELNVTVVTNMCRRRVNVCTLVPRRQAGICFGDSGGPLVCNNLVQGIDSFIRGGCGSGLYPDAFAPVAEFADWINSIIRSHNDHLLTHPKDREGRTN |  |  | such peptides are not cleaved by NE
